For two compounds, mass density and refractive index results are on record in the NIST ThermoML archive (doi:10.1016/j.fluid.2014.03.019).

As usually defined, the mass density is the mass of a sample divided by its volume. Usually refractive index stands for a measure of how strongly the sample bends light.

The nature of series [1]: wn = mass fraction of the nth substance listed. Particulars: Liquid, Vibrating tube method.
Series [2] in a line: refractive index (Na D-line) (dimensionless); wn = mass fraction of the nth substance listed. Conditions: Liquid, Standard Abbe refractometry.

Numbers after ± are expanded uncertainties.

Take `O=B[O-].[Li+]` [lithium metaborate] + O: the mass density turned out to be 1023.17 ± 0.34 kg/m3 in series [1] (288.15 K, w1 = 0.0187) and 1035.63 ± 0.26 kg/m3 in series [1] (298.15 K, w1 = 0.0336). For the same compound, the refractive index in series [2] (288.15 K, w1 = 0.0187) stood at 1.341 ± 0.0005; in series [2] (298.15 K, w1 = 0.0336) it was 1.3452 ± 0.0004.
For the compound `O=S(=O)([O-])[O-].[Li+].[Li+]` [lithium sulfate] + O, the mass density was 1246.65 ± 1.8 kg/m3 in series [1] (288.15 K, w1 = 0.2596) and 1245.02 ± 2.7 kg/m3 in series [1] (298.15 K, w1 = 0.2561). The refractive index in series [2] (288.15 K, w1 = 0.2596) came out at 1.3788 ± 0.0005; in series [2] (298.15 K, w1 = 0.2561) it was 1.3771 ± 0.0006.
